Data taken from patent US12673039B2, “Methods of inducing autophagy using coumarin derivatives and related compounds” (Buck Institute for Research on Aging, priority 2019, dated 2026).

Experiments:
[1] = test system: TSC1+/− human neuronal SH-SY5Y cells; assay: TAU, phosphorylated-TAU, insoluble tau and viability in TSC1 mutant SH-SY5Y neuronal cells; type: cell-based
Method: FIG. 8 A) Representative Western blot analysis of detergent-insoluble tau levels in control versus three independent TSC1-mutant SY5Y cell lines (A1, A3, A3A9) treated with 10 μM C1 (AIC106) versus vehicle. FIG. 8B) Quantitation of insoluble tau levels in control (Emty) versus mutant TSC1 lines treated with C1 (AIC106) versus vehicle (−). Values represent fold change versus vehicle-treated controls, *p<0.01.
(§1) FIG. 23, panels A-H: FXR modulation enhances HLH-30 expression in human neuronal SH-SY5Y cells. Panel A) Effects of AIC106 on human FXR activity was determined in a mammalian one-hybrid based kit assay by quantifying changes in the luciferase activity of FXR ligand (GW4064, GW) induced treatment. [N=3 independent experiments (mean±SD). ****p<0.0001, by one-way ANOVA with Tukey's multiple comparisons test]. Panel B) Protein expression of TFEB, cathepsin-D (CAT-D) and small heterodimer partner-1 (SHP-1) was determined by immunoblot in neuronal SH-SY5Y cells post-24 hours of treatment with AIC106 and DMSO-control. Panel C) AIC106 enhances autophagic flux in neuronal SH-SY5Y cells. Autophagic flux in DMSO-control and AIC106 treated neuronal cells was determined by quantifying levels of autophagosome specific LC3-II protein both in presence and absence of autophagy inhibitor bafliomycin A1 (Baf A, 10 nM). Panel D) Relative fold change in the band intensity of LC3-II protein, normalized to loading control actin. Values are relative to DMSO-control. [N=3 independent experiments (mean±SD). *p<0.05 and ****p<0.0001, by one-way ANOVA with Tukey's multiple comparisons test]. Panel E) Effects of AIC106 treatment for 72 hours on basal TAU and phosphorylated-TAU in differentiated human neuronal SH-SHY5Y and heterozygous TSC1(+/−) mutant SH-SY5Y neuronal cells were quantitated by immunoblotting following total protein extraction. Relative fold change in the band intensity compared to SH-SY5Y control treatment for (panel F) total TAU and (panel G) phosphorylated-TAU, normalized to loading control GAPDH. [N=3 independent experiments (mean±SD). *p<0.05 and **p<0.01, by one-way ANOVA with Sidak's multiple comparisons test]. Panel H) AIC106 treatment improves viability and health of differentiated SH-SY5Y-TSC1(+/−) neuronal cells. Images were taken post-96 hours after treatment of differentiated neuronal cells with AIC106.
The rat dopaminergic cell line 1RB3AN27 (N27) was grown in RPMI 1640 medium supplemented with 10% fetal calf serum (Invitrogen), 100 U/ml penicillin, and 100 μg/ml streptomycin. SH-SY5Y TSC1+/− lines were generated as described previously (Olney et al., 2017). […]

[2] = test system: SH-SY5Y cells; assay: Immunoblot of TFEB, cathepsin-D and SHP-1 in SH-SY5Y cells; type: cell-based, human; settings: 24 hours
Method: as §1
FIG. 30, panels A-B: FXR modulation enhances HLH-30 expression in human neuronal SH-SY5Y cell. Panel A) TFEB expression in SH-SY5Y cells was determined by immunoblot against TFEB in protein lysates collected after 24 hours of treatment with FXR agonist GW4064 and DMSO control. Panel B) Phosphorylated-TAU levels in SH-SY5Y-P301L-TAU cells was determined by immunoblot against (Ser202, Thr205) in protein lysates collected after 24 hours of treatment with known FXR antagonist Z-gugglsterone (z-GG), DY268 and DMSO control.

[3] = test system: SH-SY5Y cells; assay: Autophagic flux (LC3-II ± bafilomycin A1) in SH-SY5Y cells; type: cell-based, human; settings: presence and absence of bafliomycin A1
Method: as §1, with “[N=3 independent experiments (mean±SD). *p<0.05 and ****p<0.0001, by one-way ANOVA with Tukey's multiple comparisons test].” left out, “Relative fold change in the band intensity compared to SH-SY5Y control treatment for (panel F) total TAU and (panel G) phosphorylated-TAU, normalized to loading control GAPDH. [N=3 independent experiments (mean±SD). *p<0.05 and **p<0.01, by one-way ANOVA with Sidak's multiple comparisons test]. Panel H) AIC106 treatment improves viability and health of differentiated SH-SY5Y-TSC1(+/−) neuronal cells. Images were taken post-96 hours after treatment of differentiated neuronal cells with AIC106.” left out

[4] = test system: parkin mutant PD mouse model; assay: Age-related parkin mutant PD mouse model, C1 in the feed; type: in vivo; settings: oral in the feed
From the text: Relative TFEB expression as assessed by qPCR from mRNA extracted from the SNpc of parkin mutant versus WT littermates administered C1 in the feed versus normal chow; UA was included as a positive control.
Stereological DAergic SNpc counts and motor behavior as assessed by rearing frequency in parkin mutant versus WT littermates administered C1 in the feed versus normal chow.

[5] = TSC1+/− SH-SY5Y cells, 72 hours

O=c1oc2c3c4c(cc2c2c1CCC2)CCCN4CCC3 [C1, 2,3,6,7,10,11-Hexahydro-1H,5H-cyclopenta(3,4)(1)benzopyrano(6,7,8-ij)quinolizin-12(9H)-one]
TAU levels [1, 5]: without significantly changing TAU levels
phosphorylated-TAU [1, 5]: decrease of phosphorylated-TAU
insoluble tau levels ([1]; TSC1-mutant SY5Y cell lines, 10 μM C1 (FIG. 8)): reduce levels of insoluble tau levels
viability and general health of differentiated cells ([1]; differentiated TSC1+/− SH-SY5Y cells, 96 hours): prevented loss in viability
TFEB protein expression [2]: increased expression TFEB protein
cathepsin D (CATD) protein expression [2]: enhanced protein expression of TFEB target gene cathepsin D
small heterodimer partner-1 (SHP-1) expression [2]: reduced expression of ligand-bound FXR target, small heterodimer partner-1
autophagic flux (LC3 turnover) [3]: enhanced autophagic flux
motor deficits (rearing frequency) ([4]; 6 month period (FIG. 16)): prevents both neuronal cell loss and motor deficits
neuronal cell loss (DAergic SNpc counts) ([4]; 6 month period (FIG. 16)): prevents both neuronal cell loss and motor deficits
TFEB expression in SNpc ([4]; 6 month period from 14-16 mo. (FIG. 15)): TFEB target engagement
